# Results reported in PMC7607875, “Enhancing the antibacterial activity of antimicrobial peptide PMAP-37(F34-R) by cholesterol modification” (BMC Veterinary Research, 2020).
# Marks after values point to notes of the source that are not given here. Residues, ends and D or L forms follow the SMILES beside them. No end group written: not given here. *: point of attachment. Cholesteryloxycarbonyl = CC(C)CCC[C@@H](C)[C@H]1CC[C@H]2[C@@H]3CC=C4C[C@@H](OC(=O)*)CC[C@]4(C)[C@H]3CC[C@]12C
# Assays:
# [1] = tested on: L. monocytogenes CICC21634; experiment: MIC assay, microdilution method; assay type: cell-based
# Experimental: (§1) The MIC values of Chol-37(F34-R) were determined using the microdilution method of the Clinical and Laboratory Standards Institute. Antibacterial intensity was tested in MHB against S. aureus ATCC25923, L. monocytogenes CICC21634, S. typhimurium SL1344, and P. aeruginosa GIM1.551. The tested strains were cultured for 12 h at 37 °C. Then, the bacterial inoculum concentration was adjusted to 1 × 10^6 CFU/mL. Twofold serial dilutions covering different concentrations from 0.0039 to 256 μg/mL for each peptide were added to media containing cultures of the tested strains in 96-well plates, which were incubated at 37 °C for 18 h. The MIC values were determined by evaluating the OD600nm of the cultures.
# P. aeruginosa GIM1.551 [2] = experiment: MIC assay, microdilution method; assay type: cell-based
# Experimental: as §1
# S. aureus ATCC25923 [3] = experiment: MIC assay, microdilution method; assay type: cell-based
# Experimental: as §1
# P. aeruginosa GIM1.551 [4] = assay type: cell-based; conditions: GIM1.551, 12 h
# Experimental: as §1
# (§2) The effects of salt ion and serum on the antibacterial activities of Chol-37(F34-R) were investigated by MIC assay. S. aureus ATCC25923 and P. aeruginosa GIM1.551 were used as the tested strains. The MIC values were determined at recommended doses of NaCl (8.766 g/L), CaCl2 (0.039 g/L), and fetal bovine serum (20%).
# (§3) The effects of salt ion and serum on antibacterial activities of PMAP-37(F34-R)-C were investigated by MIC assay. a, The control MIC values were determined in the absence of physiological salts and serum. b, c, and d, The final concentrations of NaCl, CaCl2, and serum were 8.766 g/L, 0.039 g/L, and 20% (v/v), respectively.
# S. aureus ATCC25923 [5] = assay type: cell-based; conditions: ATCC25923, 12 h
# Experimental: as §1, §2, §3
# mouse erythrocytes = experiment: Hemolytic assay; conditions: at 1280 μg/mL, 1 h, OD570nm, n = 5
# Experimental: Mouse erythrocytes were diluted to a final suspension concentration of 8% (v/v). Then, 100 μL erythrocyte suspension was incubated with 100 μL peptides at different concentrations ranging from 2.5 to 1280 μg/mL. PBS and 0.2% Triton X-100 were used as negative and positive controls, respectively. After 1 h of incubation, the tested samples were centrifuged for 5 min at 1000 g. Lastly, the absorbance of the supernatant of tested samples was measured at 570 nm. The percentage of hemolytic was obtained using the following formula: Hemolysis rate = [OD570nm (peptides) − OD570nm (PBS)]/[OD570nm (Triton X − 100) − OD570nm (PBS)] × 100 % .
# NIH 3 T3 cells = experiment: Cytotoxicity assay (MTT); conditions: 24 h, at a concentration of 1280 μg/mL, n = 5
# Experimental: NIH 3 T3 cells were seeded in a 96-well with a density of 1× 10^4 cells per well and incubated in 37 °C for 24 h. Afterward, the cell medium was replaced by fresh DMEM containing various concentrations of peptides (2.5–1280 μg/mL). After 24 h incubation, 20 μL MTT agent (5 mg/mL) was added to each well and incubated for 4 h. Then, the supernatant of each well was replaced with 150 μL DMSO. The absorbance was measured by a microplate reader (FlexStation III) at 570 nm.
# P. aeruginosa GIM1.551 [6] = experiment: P. aeruginosa GIM1.551-infected mouse knife injury model; assay type: in vivo; conditions: topical 10 μL of 1 μg/μL once per day for 7 days, day 7
# Experimental: The P. aeruginosa strain GIM1.551 was used to build knife wound model of mouse as described elsewhere with minor modifications. A total of 30 mice were randomly divided into six groups. Briefly, the fur on the back of each mouse was removed by shaving. A 1.5 cm linear knife wound was made on the back of each mouse and infected by direct seeding with bacterial suspensions (1 × 10^8 CFU/mL, 50 μL). One day postinfection, the wounds were administered with PMAP-37 (10 μL, 1 μg/μL), PMAP-37(F34-R) (10 μL, 1 μg/μL), Chol-37(F34-R) (10 μL, 1 μg/μL), ampicillin sodium (10 μL, 1 μg/μL), or PBS (10 μL), and the treatment program was performed once per day for 7 days. The mice with no infection and treatment were used as blank control. The wounds of mice were wrapped in gauze bandages that were changed every day. Seven days after treatment, mice were euthanized with 120 mg/kg intraperitoneal (i.p.) sodium pentobarbital and their wound tissues were collected. The wound tissues were homogenized with a basic homogenizer. Following a 10-fold serial dilution in PBS, the homogenates were spread on TSB agar plates. The bacterial burden was determined after incubation at 37 °C for 18 h.
# P. aeruginosa GIM1.551 [7] = experiment: P. aeruginosa GIM1.551-infected mouse abscess model; assay type: in vivo; conditions: P. aeruginosa GIM1.551 model; 10 μL of 1 μg/μL once per day for 3 days, day 3; n = 5
# Source text: (§4) The abscess model of mouse was built against S. aureus ATCC25923 or P. aeruginosa GIM1.551 as previously described with minor modifications. Twelve groups of 60 mice (5 mice per group) were randomly divided into PMAP-37, PMAP-37(F34-R), Chol-37(F34-R), ampicillin sodium (against S. aureus ATCC25923-infected mouse abscess model), benzylpenicillin potassium (against P. aeruginosa GIM1.551-infected mouse abscess model), PBS, and blank groups. The fur on the back of each mouse was shaved. Bacterial suspensions (1 × 10^8 CFU/mL, 50 μL) were injected into the right side of the dorsum underneath the thin skeletal muscle. After 1 h of inoculation, the infected areas were directly injected with PMAP-37, (10 μL, 1 μg/μL), PMAP-37(F34-R) (10 μL, 1 μg/μL), Chol-37(F34-R) (10 μL, 1 μg/μL), antibiotic (ampicillin sodium 10 μL, 1 μg/μL or benzylpenicillin potassium 10 μL, 1 μg/μL), or PBS (10 μL). The treatment program was conducted once per day for 3 days. Mice in the blank group were not challenged and treated. Three days after treatment, mice were euthanized with 120 mg/kg i.p. sodium pentobarbital, and their skin abscesses were harvested and homogenized as described above to assess the bacterial burden.
# S. aureus ATCC25923 [8] = experiment: S. aureus ATCC25923-infected mouse abscess model; assay type: in vivo; conditions: 10 μL of 1 μg/μL once per day for 3 days, day 3, n = 5
# Source text: as §4
# S. aureus ATCC25923 [9] = experiment: S. aureus ATCC25923-infected mouse peritonitis model; assay type: in vivo; conditions: i.p. 20 μL of 1 μg/μL once per day for 3 days
# Experimental: The dissemination of S. aureus ATCC25923 to target organs was assessed in the peritonitis model. The assessment was performed on the basis of the method described previously with minor modifications. Six groups of 60 mice (10 mice per group) were randomly divided into PMAP-37, PMAP-37(F34-R), Chol-37(F34-R), ampicillin sodium, PBS, and blanks group. Bacterial suspension (1 × 10^8 CFU/mL, 100 μL) was intraperitoneally injected into mice. After 2 h inoculation, PMAP-37 (20 μL, 1 μg/μL), PMAP-37(F34-R) (20 μL, 1 μg/μL), Chol-37(F34-R) (20 μL, 1 μg/μL), ampicillin sodium (20 μL, 1 μg/μL), or PBS (20 μL) was intraperitoneally injected into the mice, and the treatment program was implemented once per day for 3 days. Mice in the blank group were not challenged and treated. […] Aliquots of diluted homogenized tissues were spread on LB agar, on which the bacterial burden was determined for analysis. […] Pathological changes were scored as follows: a score of 1 indicated no pathology, 2 indicated perivascular infiltrates, 3 indicated perivascular and interstitial infiltrates affecting < 20% of the section, 4 indicated perivascular and interstitial infiltrates affecting 20 to 50% of the section, and 5 indicated perivascular and interstitial infiltrates affecting > 50% of the section.
# [10] = tested on: L. monocytogenes CICC21634; experiment: Inhibition zone assay (Kirby-Bauer disk diffusion); assay type: cell-based; parameters: key: +, peptide have antibacterial activity; conditions: disk with 10 μg, 37 °C, 18 h
# Experimental: (§5) The antibacterial activity of Chol-37(F34-R) was detected using the Kirby-Bauer diffusion method. Four bacterial strains were used as experimental strains: L. monocytogenes CICC21634 cultured with BHI, P. aeruginosa GIM1.551 cultured with TSB, S. aureus ATCC25923, and S. typhimurium SL1344 cultured with LB medium. Briefly, the bacterial cells were cultured for 12 h at 37 °C in appropriate culture media, and the bacterial cell suspension was spread on the corresponding solid medium. Then, the disks containing 10 μg peptide or ceftiofur sodium were attached to the solid medium and incubated at 37 °C for 18 h. Lastly, the diameter of the inhibition zone was measured.
# P. aeruginosa GIM1.551 [11] = experiment: Inhibition zone assay (Kirby-Bauer disk diffusion); assay type: cell-based; parameters: key: +, peptide have antibacterial activity; conditions: disk with 10 μg, 37 °C, 18 h
# Experimental: as §5
# S. aureus ATCC25923 [12] = experiment: Inhibition zone assay (Kirby-Bauer disk diffusion); assay type: cell-based; parameters: key: +, peptide have antibacterial activity; conditions: disk with 10 μg, 37 °C, 18 h
# Experimental: as §5
# S. typhimurium SL1344 [13] = experiment: Inhibition zone assay (Kirby-Bauer disk diffusion); assay type: cell-based; parameters: key: +, peptide have antibacterial activity; conditions: disk with 10 μg, 37 °C, 18 h
# Experimental: as §5
# S. typhimurium SL1344 [14] = assay type: cell-based; conditions: SL1344, 18 h
# Experimental: as §1
Compound,"MIC, CaCl2 (P. aeruginosa GIM1.551 [4]) [mg/L]","MIC, Fetal bovine serum (P. aeruginosa GIM1.551 [4]) [mg/L]","MIC, NaCl (P. aeruginosa GIM1.551 [4]) [mg/L]","MIC, control (P. aeruginosa GIM1.551 [4]) [mg/L]","MIC, CaCl2 (S. aureus ATCC25923 [5]) [mg/L]","MIC, Fetal bovine serum (S. aureus ATCC25923 [5]) [mg/L]","MIC, NaCl (S. aureus ATCC25923 [5]) [mg/L]","MIC, control (S. aureus ATCC25923 [5]) [mg/L]","MIC ([1]; CICC21634, 18 h)","MIC (P. aeruginosa GIM1.551 [2]; GIM1.551, 18 h)","MIC (S. aureus ATCC25923 [3]; ATCC25923, 18 h)",MIC (S. typhimurium SL1344 [14]),also measured
CC[C@H](C)[C@H](NC(=O)[C@H](CCCNC(=N)N)NC(=O)[C@H](CCC(=O)O)NC(=O)[C@@H](NC(=O)[C@H](CCCCN)NC(=O)[C@H](CCC(=O)O)NC(=O)CNC(=O)[C@H](CC(C)C)NC(=O)[C@H](CCCNC(=N)N)NC(=O)[C@H](CCCNC(=N)N)NC(=O)CNC(=O)[C@H](CCCNC(=N)N)NC(=O)[C@H](CC(=O)O)NC(=O)[C@H](CO)NC(=O)[C@H](CC(C)C)NC(=O)[C@H](Cc1ccccc1)NC(=O)[C@H](CC(=O)O)NC(=O)[C@H](CCCNC(=N)N)NC(=O)[C@H](CC(C)C)NC(=O)[C@H](CCCNC(=N)N)NC(=O)[C@H](CO)NC(=O)[C@H](CC(C)C)NC(=O)[C@H](CC(C)C)NC(=O)CNC(=O)O[C@H]1CC[C@@]2(C)C(=CC[C@H]3[C@@H]4CC[C@H]([C@H](C)CCCC(C)C)[C@@]4(C)CC[C@@H]32)C1)[C@@H](C)CC)C(=O)NCC(=O)N[C@@H](CCC(N)=O)C(=O)N[C@@H](CCCCN)C(=O)N[C@H](C(=O)N[C@@H](CCCCN)C(=O)N[C@@H](CC(=O)O)C(=O)N[C@@H](CC(C)C)C(=O)N[C@@H](CO)C(=O)N[C@@H](CCC(=O)O)C(=O)N[C@@H](CCCNC(=N)N)C(=O)N[C@@H](Cc1ccccc1)C(=O)N[C@@H](CCC(N)=O)C(=O)N[C@@H](CO)C(=O)O)[C@@H](C)CC [Chol-37(F34-R)] (Cholesteryloxycarbonyl-GLLSRLRDFLSDRGRRLGEKIERIGQKIKDLSERFQS-OH),0.5,0.5,0.5,0.5,0.0078,0.0078,0.0078,0.0078,–,–,–,–,"MIC ([1]; L. monocytogenes CICC21634, MHB, 1 × 10^6 CFU/mL, 37 °C, 18 h, OD600nm, three independent experiments performed in triplicate): 0.5** μg/mL; MIC (P. aeruginosa GIM1.551 [2]; P. aeruginosa GIM1.551, MHB, 1 × 10^6 CFU/mL, 37 °C, 18 h, OD600nm, three independent experiments performed in triplicate): 0.5** μg/mL; MIC (S. aureus ATCC25923 [3]; S. aureus ATCC25923, MHB, 1 × 10^6 CFU/mL, 37 °C, 18 h, OD600nm, three independent experiments performed in triplicate): 0.0078** μg/mL; hemolysis rate (mouse erythrocytes): less than 5%; cell survival rate (NIH 3 T3 cells): over 80%"
CC1(C)S[C@@H]2[C@H](NC(=O)[C@H](N)c3ccccc3)C(=O)N2[C@H]1C(=O)O [ampicillin sodium],–,–,–,–,–,–,–,–,–,–,–,–,wound size vs PBS group (P. aeruginosa GIM1.551 [6]): smaller wound sizes than that of the PBS group; bacterial load in the abscess (P. aeruginosa GIM1.551 [7]): reduced bacterial load in the abscess
CC1(C)S[C@@H]2[C@H](NC(=O)Cc3ccccc3)C(=O)N2[C@H]1C(=O)O [benzylpenicillin potassium],–,–,–,–,–,–,–,–,–,–,–,–,bacterial load in the abscess (S. aureus ATCC25923 [8]): reduced bacterial load in the abscess; tissue damage of liver and spleen (histopathology) (S. aureus ATCC25923 [9]): eliminated most of the damaged tissues; bacterial load in the liver and spleen (S. aureus ATCC25923 [9]; n = 5): reduced the bacterial load
CO/N=C(\C(=O)N[C@@H]1C(=O)N2C(C(=O)[O-])=C(CSC(=O)c3ccco3)CS[C@H]12)c1csc(N)n1.[Na+] [ceftiofur sodium],–,–,–,–,–,–,–,–,–,–,–,–,in vitro antibacterial activity (disk diffusion) [10]: +; in vitro antibacterial activity (disk diffusion) (P. aeruginosa GIM1.551 [11]): +; in vitro antibacterial activity (disk diffusion) (S. aureus ATCC25923 [12]): +; in vitro antibacterial activity (disk diffusion) (S. typhimurium SL1344 [13]): +
GLLSRLRDFLSDRGRRLGEKIERIGQKIKDLSEFFQS [PMAP-37],2,2,2,2,0.0313,0.0313,0.0313,0.0313,4 µg/mL,2 µg/mL,0.0313 µg/mL,4 µg/mL,–
GLLSRLRDFLSDRGRRLGEKIERIGQKIKDLSERFQS [PMAP-37(F34-R)],1,1,1,1,0.0156,0.0156,0.0156,0.0156,2* μg/mL,1* μg/mL,0.0156* μg/mL,1** μg/mL,–
